In patent US9914730B2, “Azaquinazoline inhibitors of Atypical protein Kinase C” (Ignyta, Inc., priority 2012, dated 2018):

Molecular target: T1, full-length human PKCι (Homo sapiens, UniProt P41743)
T1 construct: Recombinant, full-length human PKCι expressed in Sf21 insect cells is also commercially available; purchased; host or cells: Sf21 insect cells
T1 sequence (P41743 1-596): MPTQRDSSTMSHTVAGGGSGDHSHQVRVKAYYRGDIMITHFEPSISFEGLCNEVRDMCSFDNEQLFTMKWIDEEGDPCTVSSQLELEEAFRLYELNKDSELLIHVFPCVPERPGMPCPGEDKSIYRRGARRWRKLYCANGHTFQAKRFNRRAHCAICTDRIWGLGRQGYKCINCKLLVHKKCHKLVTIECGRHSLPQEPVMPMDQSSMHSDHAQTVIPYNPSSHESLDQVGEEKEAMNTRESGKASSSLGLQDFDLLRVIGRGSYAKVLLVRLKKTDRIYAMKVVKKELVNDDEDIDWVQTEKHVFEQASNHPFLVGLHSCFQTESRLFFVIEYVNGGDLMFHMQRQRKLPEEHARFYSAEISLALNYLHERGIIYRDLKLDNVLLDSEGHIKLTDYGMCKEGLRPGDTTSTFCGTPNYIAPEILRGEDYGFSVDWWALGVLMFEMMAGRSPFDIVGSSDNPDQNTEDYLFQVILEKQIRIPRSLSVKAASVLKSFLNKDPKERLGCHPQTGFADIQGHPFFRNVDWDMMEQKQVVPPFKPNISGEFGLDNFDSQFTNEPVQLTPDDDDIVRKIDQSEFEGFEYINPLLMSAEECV
Assay: PKCι IC50 IMAP assay, full-length PKCι at 150 μM ATP
Type: biochemical
Details: read-out: IC50 in IMAP assay against full length PKCi at 150 μM ATP
Method in brief: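 Full-length hPKCι (Sf21) ~15 pM; 5FAM-peptide 100 nM; ATP 150 μM (5× KM^APP); tris pH7.5/MgCl2/EGTA/DTT/Triton, 4% DMSO; 60 min RT; IMAP stop, 2 h; FP 485/530 nm; IC50 from % inhibition curves.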

Row | Compound | IC50 [µM]
1 | COc1cc(Nc2cc(-c3nc(N4CCNCC4)c4c(C5CC5)cncc4n3)ccn2)ccc1C1CC1 [Example 637, (4-Cyclopropyl-3-methoxy-phenyl)-[4-(5-cyclopropyl-4-piperazin-1-yl-pyrido[3,4-d]pyrimidin-2-yl)-pyridin-2-yl]-amine] | < 0.1
2 | C[C@H](Nc1cc(-c2nc(N3CCNCC3)c3c(C4CC4)cncc3n2)ccn1)c1ccccc1 [Example 587, [4-(5-Cyclopropyl-4-piperazin-1-yl-pyrido[3,4-d]pyrimidin-2-yl)-pyridin-2-yl]-((S)-1-phenyl-ethyl)-amine] | < 0.1
3 | COc1cncc2nc(-c3ccnc(Nc4cccc(F)n4)c3)nc(N3CCC(O)CC3)c12 [Example 468, 1-{2-[2-(6-Fluoro-pyridin-2-ylamino)-pyridin-4-yl]-5-methoxy-pyrido[3,4-d]pyrimidin-4-yl}-piperidin-4-ol] | 0.1 to 1
4 | CCNC(=O)N[C@H](CNc1nc(-c2ccncc2)nc2cnccc12)Cc1ccccc1 [Example 85, 3-ethyl-1-(1-phenyl-3-{[2-(pyridin-4-yl)pyrido[3,4-d]pyrimidin-4-yl]amino}propan-2-yl)urea] | 10 to 40
5 | Fc1cccc(Nc2cc(-c3nc(N4CCNCC4)c4c(Cl)cncc4n3)ccn2)n1 [Example 253, [4-(5-Chloro-4-piperazin-1-yl-pyrido[3,4-d]pyrimidin-2-yl)-pyridin-2-yl]-(6-fluoro-pyridin-2-yl)-amine] | < 0.1
6 | CC(C)(C)c1ccc(Nc2cc(-c3nc(N4CCNCC4)c4c(C5CC5)cncc4n3)ccn2)c(Cl)c1 [Example 529, (4-tert-Butyl-2-chloro-phenyl)-[4-(5-cyclopropyl-4-piperazin-1-yl-pyrido[3,4-d]pyrimidin-2-yl)-pyridin-2-yl]-amine] | < 0.1
7 | c1ccc(Nc2cc(-c3nc(N4C[C@@H]5C[C@H]4CN5)c4ccncc4n3)ccn2)cc1 [Example 306, {4-[(1S,4S)-4-(2,5-Diaza-bicyclo[2.2.1]hept-2-yl)-pyrido[3,4-d]pyrimidin-2-yl]-pyridin-2-yl}-phenyl-amine] | 1 to 10
8 | CC(C)(C)OC(=O)N1CCN(c2nc(-c3ccncc3)nc3cnccc23)CC1 [Example 22, tert-butyl 4-[2-(pyridin-4-yl)-pyrido[3,4-d]-pyrimidin-4-yl]-piperazine-1-carboxylate] | 10 to 40
9 | Clc1cncc2nc(-c3ccncc3)nc(N3CCNCC3)c12 [Example 132, 5-Chloro-4-piperazin-1-yl-2-pyridin-4-yl-pyrido[3,4-d]pyrimidine] | < 0.1
10 | CC(C)C(=O)Nc1cc(-c2nc(N3CCNCC3)c3c(C4CC4)cncc3n2)ccn1 [Example 583, N-[4-(5-Cyclopropyl-4-piperazin-1-yl-pyrido[3,4-d]pyrimidin-2-yl)-pyridin-2-yl]-isobutyramide] | < 0.1
11 | COc1cncc2nc(-c3ccncc3)nc(N3CCNC(C(=O)Nc4ccccc4)C3)c12 (stereo not shown) [Example 156, 4-(5-Methoxy-2-pyridin-4-yl-pyrido[3,4-d]pyrimidin-4-yl)-piperazine-2-carboxylic acid phenylamide] | 1 to 10
12 | COc1cncc2nc(-c3ccnc(NC(=O)Cc4ccc(C(F)(F)F)cc4)c3)nc(N3CCNCC3)c12 [Example 391, N-[4-(5-Methoxy-4-piperazin-1-yl-pyrido[3,4-d]pyrimidin-2-yl)-pyridin-2-yl]-2-(4-trifluoromethyl-phenyl)-acetamide] | < 0.1
13 | COc1cncc2nc(-c3ccnc(Nc4c(F)cccc4F)c3)nc(N3CCN[C@@H](CO)C3)c12 [Example 442, ((R)-4-{2-[2-(2,6-Difluoro-phenylamino)-pyridin-4-yl]-5-methoxy-pyrido[3,4-d]pyrimidin-4-yl}-piperazin-2-yl)-methanol] | < 0.1
14 | COc1cncc2nc(-c3ccnc(NC4CCCCC4)c3)nc(N3CCNCC3)c12 [Example 242, Cyclohexyl-[4-(5-methoxy-4-piperazin-1-yl-pyrido[3,4-d]pyrimidin-2-yl)-pyridin-2-yl]-amine] | < 0.1
15 | Fc1ccc(F)c(Nc2cc(-c3nc(N4CCNCC4)c4c(Nc5c(F)ccc(F)c5F)cncc4n3)ccn2)c1F [Example 261, {4-Piperazin-1-yl-2-[2-(2,3,6-trifluoro-phenylamino)-pyridin-4-yl]-pyrido[3,4-d]pyrimidin-5-yl}-(2,3,6-trifluoro-phenyl)-amine] | 0.1 to 1
16 | OC1CCN(c2nc(-c3ccncc3)nc3c(Cl)nccc23)CC1 [Example 75, 1-[8-chloro-2-(pyridin-4-yl)-pyrido[3,4-d]-pyrimidin-4-yl]-piperidin-4-ol] | 1 to 10
17 | FC(F)(F)C1CN(c2nc(-c3ccncc3)nc3c(Cl)nccc23)CCN1 (stereo not shown) [Example 60, 1-[8-chloro-2-(pyridin-4-yl)-pyrido[3,4-d]-pyrimidin-4-yl]-3-(trifluoromethyl)-piperazine] | 1 to 10
18 | COc1cncc2nc(-c3ccnc(Nc4ccccc4)c3)nc(N3CCC(CO)CC3)c12 [Example 244, {1-[5-Methoxy-2-(2-phenylamino-pyridin-4-yl)-pyrido[3,4-d]pyrimidin-4-yl]-piperidin-4-yl}-methanol] | 1 to 10
19 | COc1cncc2nc(-c3ccnc(Nc4ccccc4)c3)nc(N3CCC(O)C(O)C3)c12 (single isomer, unassigned) [Example 456, (3S,4S)-1-[5-Methoxy-2-(2-phenylamino-pyridin-4-yl)-pyrido[3,4-d]pyrimidin-4-yl]-piperidine-3,4-diol or (3R,4R)-1-[5-Methoxy-2-(2-phenylamino-pyridin-4-yl)-pyrido[3,4-d]pyrimidin-4-yl]-piperidine-3,4-diol] | 0.1 to 1
20 | [4-(5-Cyclopropyl- 4-piperazin-1-yl- pyrido[3,4- d]pyrimidin-2-yl)- pyridin-2-yl]-(2,3- dichloro-phenyl)- amine [Example 543] | < 0.1

Next, values leading:

Row | IC50 [µM] | Compound
21 | 0.1 to 1 | CN1CCN(c2cccc(Nc3cc(-c4nc(N5CCCCCC5)c5c(C6CC6)cncc5n4)ccn3)c2)CC1 [Example 804, [4-(4-Azepan-1-yl-5-cyclopropyl-pyrido[3,4-d]pyrimidin-2-yl)-pyridin-2-yl]-[3-(4-methyl-piperazin-1-yl)-phenyl]-amine]
22 | < 0.1 | Clc1ccc2[nH]c3nccc(-c4nc(N5CCNCC5)c5c(C6CCC6)cncc5n4)c3c2c1 [Example 2200, 6-Chloro-4-(5-cyclobutyl-4-piperazin-1-yl-pyrido[3,4-d]pyrimidin-2-yl)-9H-pyrido[2,3-b]indole]
23 | 0.1 to 1 | CN1CCN(c2nc(-c3ccnc(Nc4cccc(N5CCC(O)CC5)c4)c3)nc3cncc(C4CC4)c23)CC1 [Example 728, 1-(3-{4-[5-Cyclopropyl-4-(4-methyl-piperazin-1-yl)-pyrido[3,4-d]pyrimidin-2-yl]-pyridin-2-ylamino}-phenyl)-piperidin-4-ol]
24 | < 0.1 | COc1cncc2nc(-c3ccnc4[nH]ccc34)nc(N3CCNCC3)c12 [Example 1200, 5-Methoxy-4-piperazin-1-yl-2-(1H-pyrrolo[2,3-b]pyridin-4-yl)-pyrido[3,4-d]pyrimidine]
25 | < 0.1 | CCc1ccc(Nc2cc(-c3nc(N4CCNCC4)c4c(C5CC5)cncc4n3)ccn2)c(F)c1 [Example 717, [4-(5-Cyclopropyl-4-piperazin-1-yl-pyrido[3,4-d]pyrimidin-2-yl)-pyridin-2-yl]-(4-ethyl-2-fluoro-phenyl)-amine]
26 | < 0.1 | CC1(C)CN(c2nc(-c3ccnc(Nc4ncccc4F)c3)nc3cncc(C4CC4)c23)CCN1 [Example 840, {4-[5-Cyclopropyl-4-(3,3-dimethyl-piperazin-1-yl)-pyrido[3,4-d]pyrimidin-2-yl]-pyridin-2-yl}-(3-fluoro-pyridin-2-yl)-amine]
27 | < 0.1 | COc1ccc(F)c(Nc2cc(-c3nc(N4CCNCC4)c4c(C5CC5)cncc4n3)ccn2)n1 [Example 762, [4-(5-Cyclopropyl-4-piperazin-1-yl-pyrido[3,4-d]pyrimidin-2-yl)-pyridin-2-yl]-(3-fluoro-6-methoxy-pyridin-2-yl)-amine]
28 | 1 to 10 | c1cc(-c2nccc3c(N[C@@H]4CCNC4)nc(N4CCOCC4)nc23)[nH]n1 [Example 1012, [2-Morpholin-4-yl-8-(2H-pyrazol-3-yl)-pyrido[3,4-d]pyrimidin-4-yl]-(R)-pyrrolidin-3-yl-amine]
29 | < 0.1 | Fc1cncc(F)c1Nc1cc(-c2nc(N3CCNCC3)c3c(C4CC4)cncc3n2)ccn1 [Example 705, [4-(5-Cyclopropyl-4-piperazin-1-yl-pyrido[3,4-d]pyrimidin-2-yl)-pyridin-2-yl]-(3,5-difluoro-pyridin-4-yl)-amine]
30 | < 0.1 | FC(F)(F)[C@@H]1CN(c2nc(-c3ccnc4[nH]ccc34)nc3cncc(C4CC4)c23)CCN1 [Example 1214, 5-Cyclopropyl-2-(1H-pyrrolo[2,3-b]pyridin-4-yl)-4-((S)-3-trifluoromethyl-piperazin-1-yl)-pyrido[3,4-d]pyrimidine]
31 | < 0.1 | Cn1ccc(Nc2cc(-c3nc(N4CCNC(C)(C)C4)c4c(C5CC5)cncc4n3)ccn2)n1 [Example 832, {4-[5-Cyclopropyl-4-(3,3-dimethyl-piperazin-1-yl)-pyrido[3,4-d]pyrimidin-2-yl]-pyridin-2-yl}-(1-methyl-1H-pyrazol-3-yl)-amine]
